Source: US11813362B2, “Film-coated tablet comprising a triazine derivative for use in the treatment of diabetes” (Poxel, priority 2018, dated 2023)

Experiment: Compatibility tests of imeglimin with excipients as 50:50 (w/w) binary mixture
Format: physicochemical
From the text: In a preferred embodiment, the binder consists of hydroxypropylcellulose. In other embodiments, it may comprise at least one other binder in addition to hydroxypropylcellulose, which may be selected from: microcrystalline cellulose, methylcellulose, ethylcellullose, hydroxyethylcellulose, hydroxypropylmethylcellulose (hypromellose), sodium carboxymethylcellulose (carmellose), gelatin, gum arabic, dextrin, maltodextrin, pregelatinized starch, gelatin, acacia gum, guar gum, sodium alginate, alginic acid, carbomer, polyvinyl alcohol and mixtures thereof. […] The binder(s) may represent from 1.5 to 4.5 wt. %, preferably from 3.5 to 4.5 wt. %, relative to the total weight of the tablet.
In addition to the binder(s), the tablet of this invention comprises at least one disintegrant. […] The disintegrant may thus be selected from the group consisting of: sodium croscarmellose, sodium carboxymethyl starch, hydroxypropylcellulose, calcium carboxymethylcellulose, microcrystalline cellulose, calcium carbonate, magnesium aluminum silicate, sodium starch glycolate, pregelatinized starch, sodium alginate, alginic acid, guar gum and their mixtures, for instance. Preferably, the disintegrant comprises, or preferably is, sodium croscarmellose. The disintegrant(s) may represent from 1.5 to 3 wt. %, preferably from 1.8 to 2.2 wt. %, relative to the total weight of the tablet.

formation of degradation products (compatibility) (50:50 (w/w) binary mixture with crospovidone): degradation products are formed
formation of degradation products (compatibility) (50:50 (w/w) binary mixture with polyvinylpyrrolidone (povidone)): degradation products are formed
Compound: C[C@@H]1NC(=N)N=C(N(C)C)N1.Cl [imeglimin, (+)-2-amino-3,6-dihydro-4-dimethylamino-6-methyl-1,3,5-triazine hydrochloride]
